In PubChem BioAssay (NCI):
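Assay format: 96-well plates, 48-hour exposure. At the TGI there is no net growth.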

How the values were obtained:
Test in all cases: DTP human tumour cell line panel, 48 h
[1] = system: 786-0 renal
[2] = system: A498 renal
[3] = system: A549 NSCLC
[4] = system: ACHN renal
[5] = system: CAKI-1 renal
[6] = system: COLO 205 colon
[7] = system: DLD-1 colon
[8] = system: DMS 273 small cell lung
[9] = system: EKVX NSCLC
[10] = system: HCC-2998 colon
[11] = system: HCT-116 colon
[12] = system: HCT-15 colon
[13] = system: HL-60(TB) leukemia
[14] = system: HOP-62 NSCLC
[15] = system: HOP-92 NSCLC
[16] = system: HT29 colon
[17] = system: IGROV1 ovarian
[18] = system: K-562 leukemia
[19] = system: KM12 colon
[20] = system: KM20L2 colon
[21] = system: LOX IMVI melanoma
[22] = system: LXFL 529 NSCLC
[23] = system: M14 melanoma
[24] = system: M19-MEL melanoma
[25] = system: MALME-3M melanoma
[26] = system: MOLT-4 leukemia
[27] = system: NCI-H226 lung
[28] = system: NCI-H23 lung
[29] = system: NCI-H460 lung
[30] = system: NCI-H522 lung
[31] = system: OVCAR-3 ovarian
[32] = system: OVCAR-4 ovarian
[33] = system: OVCAR-5 ovarian
[34] = system: OVCAR-8 ovarian
[35] = system: RPMI-8226 leukemia
[36] = system: RXF-631 renal
[37] = system: SF-268 CNS
[38] = system: SF-295 CNS
[39] = system: SF-539 CNS
[40] = system: SK-MEL-2 melanoma
[41] = system: SK-MEL-28 melanoma
[42] = system: SK-MEL-5 melanoma
[43] = system: SK-OV-3 ovarian
[44] = system: SN12C renal
[45] = system: SNB-19 CNS
[46] = system: SNB-75 CNS
[47] = system: SNB-78 CNS
[48] = system: SR leukemia
[49] = system: SW-620 colon
[50] = system: TK-10 renal
[51] = system: U251 CNS
[52] = system: UACC-257 melanoma
[53] = system: UACC-62 melanoma
[54] = system: UO-31 renal
[55] = system: CCRF-CEM leukemia
[56] = system: DMS 114 small cell lung
[57] = system: HOP-18 NSCLC
[58] = system: RXF 393 renal

SMILES: CC(/C=C/NNC1=NC(c2ccccc2)C(c2ccccc2)=NN1)Sc1ccccc1N (centres undefined)
- TGI [1]: 13.6 µM
- TGI [2]: 26.6 µM
- TGI [3]: 28.7 µM
- TGI [4]: 22.2 µM
- TGI [5]: 28 µM
- TGI [6]: 31 µM
- TGI [7]: 21.7 µM
- TGI [8]: 22.9 µM
- TGI [9]: 32.8 µM
- TGI [10]: 29.9 µM
- TGI [11]: 21.8 µM
- TGI [12]: 19.8 µM
- TGI [13]: 6.45 µM
- TGI [14]: 33.7 µM
- TGI [15]: 22.8 µM
- TGI [16]: 23.9 µM
- TGI [17]: 30 µM
- TGI [18]: > 100 µM
- TGI [19]: 21.8 µM
- TGI [20]: 23.2 µM
- TGI [21]: 11.4 µM
- TGI [22]: 15.5 µM
- TGI [23]: 10.6 µM
- TGI [24]: 28.9 µM
- TGI [25]: 20.9 µM
- TGI [26]: 34 µM
- TGI [27]: 24.3 µM
- TGI [28]: 29.7 µM
- TGI [29]: 24.9 µM
- TGI [30]: 11.7 µM
- TGI [31]: 22 µM
- TGI [32]: 20 µM
- TGI [33]: 31.3 µM
- TGI [34]: 19.5 µM
- TGI [35]: > 100 µM
- TGI [36]: 38.7 µM
- TGI [37]: 16 µM
- TGI [38]: 22.4 µM
- TGI [39]: 20.9 µM
- TGI [40]: 21.2 µM
- TGI [41]: 21.3 µM
- TGI [42]: 23.6 µM
- TGI [43]: 31 µM
- TGI [44]: 18.2 µM
- TGI [45]: 25.1 µM
- TGI [46]: 14 µM
- TGI [47]: 67.9 µM
- TGI [48]: 21 µM
- TGI [49]: 7.75 µM
- TGI [50]: 27.2 µM
- TGI [51]: 8.39 µM
- TGI [52]: 19.9 µM
- TGI [53]: 10.8 µM
- TGI [54]: 20.1 µM

SMILES: CC1=C(/C=C/C(C)=C/C=C/C(C)=C/C=C/C=C(C)/C=C/C=C(C)/C=C/C2=C(C)C(=O)C(O)CC2(C)C)C(C)(C)CC(O)C1=O (centres undefined)
- TGI [1]: > 100 µM
- TGI [2]: > 100 µM
- TGI [3]: > 100 µM
- TGI [4]: > 100 µM
- TGI [5]: > 100 µM
- TGI [55]: > 100 µM
- TGI [6]: > 100 µM
- TGI [7]: > 100 µM
- TGI [56]: > 100 µM
- TGI [8]: > 100 µM
- TGI [9]: > 100 µM
- TGI [10]: > 100 µM
- TGI [11]: > 100 µM
- TGI [12]: > 100 µM
- TGI [13]: > 100 µM
- TGI [57]: > 100 µM
- TGI [14]: > 100 µM
- TGI [15]: > 100 µM
- TGI [16]: > 100 µM
- TGI [17]: > 100 µM
- TGI [18]: > 100 µM
- TGI [19]: > 100 µM
- TGI [20]: > 100 µM
- TGI [21]: > 100 µM
- TGI [23]: > 100 µM
- TGI [24]: > 100 µM
- TGI [25]: > 100 µM
- TGI [26]: > 100 µM
- TGI [27]: > 100 µM
- TGI [28]: > 100 µM
- TGI [29]: > 100 µM
- TGI [30]: > 100 µM
- TGI [31]: > 100 µM
- TGI [32]: > 100 µM
- TGI [33]: > 100 µM
- TGI [34]: > 100 µM
- TGI [35]: > 100 µM
- TGI [58]: > 100 µM
- TGI [36]: > 100 µM
- TGI [37]: > 100 µM
- TGI [38]: > 100 µM
- TGI [39]: > 100 µM
- TGI [40]: > 100 µM
- TGI [41]: > 100 µM
- TGI [42]: > 100 µM
- TGI [43]: > 100 µM
- TGI [44]: > 100 µM
- TGI [45]: > 100 µM
- TGI [46]: > 100 µM
- TGI [47]: > 100 µM
- TGI [48]: > 100 µM
- TGI [49]: > 100 µM
- TGI [50]: > 100 µM
- TGI [51]: > 100 µM
- TGI [52]: > 100 µM
- TGI [53]: > 100 µM
- TGI [54]: > 100 µM

SMILES: O=c1c(O)cccn1C1OC(CO)C(O)C1O (centres undefined)
- TGI [1]: > 100 µM
- TGI [2]: > 100 µM
- TGI [3]: > 100 µM
- TGI [4]: > 100 µM
- TGI [5]: > 100 µM
- TGI [55]: > 100 µM
- TGI [6]: > 100 µM
- TGI [7]: > 100 µM
- TGI [56]: > 100 µM
- TGI [8]: > 100 µM
- TGI [9]: > 100 µM
- TGI [10]: > 100 µM
- TGI [11]: > 100 µM
- TGI [12]: > 100 µM
- TGI [57]: > 100 µM
- TGI [15]: > 100 µM
- TGI [16]: > 100 µM
- TGI [17]: > 100 µM
- TGI [18]: > 100 µM
- TGI [19]: > 100 µM
- TGI [20]: > 100 µM
- TGI [21]: > 100 µM
- TGI [22]: > 100 µM
- TGI [23]: > 100 µM
- TGI [25]: > 100 µM
- TGI [27]: > 100 µM
- TGI [28]: > 100 µM
- TGI [29]: > 100 µM
- TGI [30]: > 100 µM
- TGI [32]: > 100 µM
- TGI [33]: > 100 µM
- TGI [34]: > 100 µM
- TGI [35]: > 100 µM
- TGI [58]: > 100 µM
- TGI [36]: > 100 µM
- TGI [37]: > 100 µM
- TGI [40]: > 100 µM
- TGI [41]: > 100 µM
- TGI [43]: > 100 µM
- TGI [44]: > 100 µM
- TGI [45]: > 100 µM
- TGI [46]: > 100 µM
- TGI [47]: > 100 µM
- TGI [50]: > 100 µM
- TGI [51]: > 100 µM
- TGI [52]: > 100 µM
- TGI [53]: > 100 µM
- TGI [54]: > 100 µM
